The source of these data is patent publication US20220378801A1, “NOVEL COMPOUNDS” (AC Immune SA, priority 2019, published 2022).

Broadly, the IC50 is the concentration needed to halve the response being measured. Higher therefore signals weaker potency.

Common to all, as to type: cell-based
Test [1] concerns the target T1, NLRP3 inflammasome (Homo sapiens, UniProt Q96P20). Kind of test: NLRP3 inflammasome activation assay, IL-1 beta release, human monocyte-like cells, MSU stimulation. The conditions noted are these: PMA-differentiated, LPS-primed human monocyte-like cells; MSU 150 μg/ml 3 h; IL-1β by AlphaLISA. More on the design: endogenous in cells. As for the experimental part: (§1) The following assays can be used to determine the inhibitory activity of test compounds on the NLRP3 inflammasome using common stimuli nigericin (Invivogen) or monosodium urate crystals (MSU)(Invivogen).
(§2) Human monocyte-like cells are cultured in RPM11640 Glutamax medium supplemented with 10% heat inactivated FCS and 50 U/ml penicillin-streptomycin (Life Technologies). HMDM (Human Monocyte Derived Macrophage) are isolated from human blood with leucosep tubes and classical monocyte isolation kit from Miltenyi based on negative selection.
(§3) NLRP3 inflammasome activation assays Human monocyte-like cells are seeded at 75000 per well in a 96 well plate and differentiated overnight into macrophages with 10 ng/ml PMA (Phorbol Myristate Acetate). The following day, medium containing 10 ng/ml LPS (lipopolysaccharide) is added. After 3 h of LPS priming, concentrations of test compound in the range from 100 μM to 6 nM are added 30 min prior to NLRP3 inflammasome stimulation with Nigericin 3.75 μM or MSU 150 μg/ml for 3 h.
(§4) For IL-1β quantification, supernatants are analyzed using AlphaLISA kits according to the manufacturer's instructions (Perkin Elmer AlphaLISA AL220F).
(§5) IC50 (concentration corresponding to 50% inhibition) were determined using GraphPad Prism 8.
(In general: In Alpha technology, singlet oxygen from a donor bead excites a nearby acceptor bead.)

Test [2] deals with T1, NLRP3 inflammasome. The test can be described thus: NLRP3 inflammasome activation assay, IL-1 beta release, HMDM cells, MSU stimulation. The conditions noted are these: LPS-primed primary human monocyte-derived macrophages; MSU 150 μg/ml 3 h; IL-1β by AlphaLISA. As for the experimental part:
as §1, §2
(§6) Primary human monocyte-derived macrophages (HMDM) are seeded at 30000 per well in a 96 well plate and differentiated into macrophages with 10 ng/ml Human M-CSF (Macrophage Colony Stimulating Factor). At DIV 8 (Day in vitro) medium containing 10 ng/ml LPS is added. After 3 h of LPS priming, concentrations of test compound in the range from […] are added 30 min prior to NLRP3 inflammasome stimulation with Nigericin 2.5 μM or MSU 150 μg/ml for 3 h.
as §4, §5

Test [3] deals with T1, NLRP3 inflammasome. Kind of test: NLRP3 inflammasome activation assay, IL-1 beta release, HMDM cells, Nigericin stimulation. The conditions noted are these: LPS-primed primary human monocyte-derived macrophages; Nigericin 2.5 μM 3 h; IL-1β by AlphaLISA. As for the experimental part: as §1, §2, §6, §4, §5
Test [4] deals with T1, NLRP3 inflammasome. Kind of test: NLRP3 inflammasome activation assay, IL-1 beta release, human monocyte-like cells, Nigericin stimulation. More on the design: endogenous in cells. The conditions noted are these: PMA-differentiated, LPS-primed human monocyte-like cells; Nigericin 3.75 μM 3 h; IL-1β by AlphaLISA. As for the experimental part:
as §1, §2, §3, §4, §5

T1 sequence (Q96P20 whole entry): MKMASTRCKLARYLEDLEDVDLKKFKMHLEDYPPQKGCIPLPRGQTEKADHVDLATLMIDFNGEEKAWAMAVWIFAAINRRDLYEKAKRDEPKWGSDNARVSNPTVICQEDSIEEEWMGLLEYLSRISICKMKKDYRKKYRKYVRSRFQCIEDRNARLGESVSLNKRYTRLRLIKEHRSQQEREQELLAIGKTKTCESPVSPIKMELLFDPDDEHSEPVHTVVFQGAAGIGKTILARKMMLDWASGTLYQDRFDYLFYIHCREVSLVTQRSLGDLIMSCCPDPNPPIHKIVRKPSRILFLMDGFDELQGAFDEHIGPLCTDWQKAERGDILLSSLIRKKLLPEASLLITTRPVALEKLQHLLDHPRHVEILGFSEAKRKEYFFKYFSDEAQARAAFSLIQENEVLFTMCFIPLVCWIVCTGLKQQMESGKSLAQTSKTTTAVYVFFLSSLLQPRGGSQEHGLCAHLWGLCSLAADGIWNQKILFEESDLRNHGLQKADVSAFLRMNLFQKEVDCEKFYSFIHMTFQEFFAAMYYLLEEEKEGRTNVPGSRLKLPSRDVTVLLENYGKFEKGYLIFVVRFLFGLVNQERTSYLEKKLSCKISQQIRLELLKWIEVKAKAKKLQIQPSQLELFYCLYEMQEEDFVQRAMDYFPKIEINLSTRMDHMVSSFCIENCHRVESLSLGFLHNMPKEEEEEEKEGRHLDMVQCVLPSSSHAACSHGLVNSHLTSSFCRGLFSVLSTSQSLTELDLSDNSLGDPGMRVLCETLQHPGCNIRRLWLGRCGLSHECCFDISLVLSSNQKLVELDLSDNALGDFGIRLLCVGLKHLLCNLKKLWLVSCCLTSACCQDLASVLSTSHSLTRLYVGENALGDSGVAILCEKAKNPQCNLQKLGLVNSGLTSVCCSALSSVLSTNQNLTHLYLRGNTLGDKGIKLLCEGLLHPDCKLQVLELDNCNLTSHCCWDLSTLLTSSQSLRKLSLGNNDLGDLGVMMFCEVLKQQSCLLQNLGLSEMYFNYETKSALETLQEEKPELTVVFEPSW

Turning to `O=C(N=S1(=O)NC(=O)c2ccccc21)Nc1c2c(cc3c1CCC3)CCC2` (racemic) [Example 1], the concentration for half-maximal inhibition (IC50) on NLRP3 inflammasome [1] is less than 1000 nM; against NLRP3 inflammasome [2], less than 1000 nM; against NLRP3 inflammasome [3], 1000 to 10000 nM; on NLRP3 inflammasome [4], 1000 to 10000 nM.
With `O=C(N=S1(=O)NC(=O)c2ccccc21)Nc1c2c(cc3c1CCC3)CCC2` (single isomer, unassigned) [Example 1b], the IC50 against NLRP3 inflammasome [1] is less than 1000 nM; at NLRP3 inflammasome [2], less than 1000 nM; against NLRP3 inflammasome [3] it was 1000 to 10000 nM; against NLRP3 inflammasome [4], 1000 to 10000 nM.
On to `O=C(Nc1c2c(cc3c1CCC3)CCC2)NS1(=O)=NC(=O)c2ccccc2C1` (single isomer, unassigned) [Example 34], for which the IC50 against NLRP3 inflammasome [1] was less than 1000 nM; on NLRP3 inflammasome [2], less than 1000 nM; on NLRP3 inflammasome [3] it was 1000 to 10000 nM; at NLRP3 inflammasome [4], less than 1000 nM.
For `O=C(Nc1c2c(cc3c1CCC3)CCC2)NS1(=O)=NC(=O)c2sccc21` (single isomer, unassigned) [Example 36], the IC50 against NLRP3 inflammasome [1], against NLRP3 inflammasome [2], at NLRP3 inflammasome [3] and against NLRP3 inflammasome [4] was less than 1000 nM in each case.
`O=C(Nc1c2c(c(F)c3c1CCC3)CCC2)NS1(=O)=NC(=O)c2ccccc21` (single isomer, unassigned) [Example 37]: the IC50 against NLRP3 inflammasome [1] is less than 1000 nM; at NLRP3 inflammasome [2], less than 1000 nM; against NLRP3 inflammasome [3], 1000 to 10000 nM; against NLRP3 inflammasome [4] it was less than 1000 nM.
In the case of `CC(C)(O)c1ccc2c(c1)S(=O)(=NC(=O)Nc1c3c(cc4c1CCC4)CCC3)NC2=O` (single isomer, unassigned) [Example 41], the IC50 against NLRP3 inflammasome [1], on NLRP3 inflammasome [2], against NLRP3 inflammasome [3] and against NLRP3 inflammasome [4] was less than 1000 nM throughout.
Take `O=C(Nc1c2c(cc3c1CCC3)CCC2)NS1(=O)=NC(=O)c2c(Cl)cccc21` (single isomer, unassigned) [Example 42]: the IC50 is less than 1000 nM at NLRP3 inflammasome [1], less than 1000 nM against NLRP3 inflammasome [2], 1000 to 10000 nM at NLRP3 inflammasome [3] and 1000 to 10000 nM on NLRP3 inflammasome [4].
Consider `COc1ccc2c(c1)S(=O)(NC(=O)Nc1c3c(cc4c1CCC4)CCC3)=NC2=O` (single isomer, unassigned) [Example 48], for which the half-inhibitory concentration (IC50) against NLRP3 inflammasome [1], against NLRP3 inflammasome [2], at NLRP3 inflammasome [3] and against NLRP3 inflammasome [4] was less than 1000 nM in each case.
For the compound `O=C(Nc1c2c(c(F)c3c1CCC3)CCC2)NS1(=O)=NC(=O)c2sccc21` (single isomer, unassigned) [Example 55], the IC50 at NLRP3 inflammasome [1], on NLRP3 inflammasome [2], at NLRP3 inflammasome [3] and on NLRP3 inflammasome [4] was less than 1000 nM throughout.
`O=C(N=S1(=O)NC(=O)c2ccc(Br)cc21)Nc1c2c(cc3c1CCC3)CCC2` (single isomer, unassigned) [Example 60]: the IC50 at NLRP3 inflammasome [1] is less than 1000 nM; against NLRP3 inflammasome [2], less than 1000 nM; at NLRP3 inflammasome [3], 1000 to 10000 nM; against NLRP3 inflammasome [4], less than 1000 nM.
In the case of `O=C(Nc1c2c(cc3c1CCC3)CCC2)NS1(=O)=NC(=O)c2cc(F)ccc21` (single isomer, unassigned) [Example 62], the IC50 at NLRP3 inflammasome [1] is less than 1000 nM; against NLRP3 inflammasome [2], less than 1000 nM; against NLRP3 inflammasome [3], 1000 to 10000 nM; at NLRP3 inflammasome [4] it was less than 1000 nM.
For the compound `O=C(Nc1c2c(cc3c1CCC3)CCC2)NS1(=O)=NC(=O)c2ccccc2C1` (stereo not shown) [Example 3], the IC50 on NLRP3 inflammasome [1] was less than 1000 nM; on NLRP3 inflammasome [2], less than 1000 nM; on NLRP3 inflammasome [3] it was 1000 to 10000 nM; against NLRP3 inflammasome [4] it was 1000 to 10000 nM.
Take `O=C(Nc1c2c(cc3c1CCC3)CCC2)NS1(=O)=NC(=O)c2sccc21` (stereo not shown) [Example 4]: the IC50 at NLRP3 inflammasome [1] was less than 1000 nM; against NLRP3 inflammasome [2], less than 1000 nM; on NLRP3 inflammasome [3], 1000 to 10000 nM; against NLRP3 inflammasome [4], less than 1000 nM.
With `O=C(Nc1c2c(c(F)c3c1CCC3)CCC2)NS1(=O)=NC(=O)c2ccccc21` (stereo not shown) [Example 5], the IC50 on NLRP3 inflammasome [1] was less than 1000 nM; against NLRP3 inflammasome [2], less than 1000 nM; against NLRP3 inflammasome [3], 1000 to 10000 nM; on NLRP3 inflammasome [4], 1000 to 10000 nM.
Consider `O=C(Nc1c2c(cc3c1CCC3)CCC2)NS1(=O)=NC(=O)c2c(Cl)cccc21` (stereo not shown) [Example 11], for which the IC50 at NLRP3 inflammasome [1] is less than 1000 nM; at NLRP3 inflammasome [2] it was 1000 to 10000 nM; on NLRP3 inflammasome [3] it was 1000 to 10000 nM; against NLRP3 inflammasome [4] it was 1000 to 10000 nM.
As for `Cc1cccc2c1C(=O)N=S2(=O)NC(=O)Nc1c2c(cc3c1CCC3)CCC2` (stereo not shown) [Example 14], the half-maximal inhibitory concentration (IC50) against NLRP3 inflammasome [1] was less than 1000 nM; on NLRP3 inflammasome [2], 1000 to 10000 nM; against NLRP3 inflammasome [3], 1000 to 10000 nM; at NLRP3 inflammasome [4], 1000 to 10000 nM.
Take `O=C(Nc1c2c(c(F)c3c1CCC3)CCC2)NS1(=O)=NC(=O)c2sccc21` (stereo not shown) [Example 19]: the IC50 against NLRP3 inflammasome [1], on NLRP3 inflammasome [2], against NLRP3 inflammasome [3] and on NLRP3 inflammasome [4] was less than 1000 nM throughout.
Consider `CC(C)(O)c1ccc2c(c1)S(=O)(=NC(=O)Nc1c3c(cc4c1CCC4)CCC3)NC2=O` (stereo not shown) [Example 30, 1-(1,2,3,5,6,7-hexahydro-s-indacen-4-yl)-3-(6-(2-hydroxypropan-2-yl)-1-oxido-3-oxo-3H-1,4-benzo[d]isothiazol-1-yl)urea], for which the IC50 on NLRP3 inflammasome [1], against NLRP3 inflammasome [2], on NLRP3 inflammasome [3] and against NLRP3 inflammasome [4] was less than 1000 nM each time.
On to `COc1cc(-c2cccc(C(C)C)c2NC(=O)NS2(=O)=NC(=O)c3ccc(C(C)(C)O)cc32)ccn1` (stereo not shown) [Example 31], for which the IC50 on NLRP3 inflammasome [1] is less than 1000 nM; against NLRP3 inflammasome [2] it was 1000 to 10000 nM; against NLRP3 inflammasome [3], 1000 to 10000 nM; at NLRP3 inflammasome [4], less than 1000 nM.
